# In article PMC7852560 (Neuropsychopharmacology, 2020):
# Legend:
# DATKO mice [1] = assay: Open-field test in DATKO mice; details: 10 mg/kg i.p., 30 min before test
# 5HT3 = molecular target: T1, 5HT3 (Homo sapiens, UniProt P46098); assay: SafetyScreen44 panel: 5HT3; assay type: binding; details: 1 µM
# T1 construct: Eurofins Cerep
# T1 sequence (P46098 24-478): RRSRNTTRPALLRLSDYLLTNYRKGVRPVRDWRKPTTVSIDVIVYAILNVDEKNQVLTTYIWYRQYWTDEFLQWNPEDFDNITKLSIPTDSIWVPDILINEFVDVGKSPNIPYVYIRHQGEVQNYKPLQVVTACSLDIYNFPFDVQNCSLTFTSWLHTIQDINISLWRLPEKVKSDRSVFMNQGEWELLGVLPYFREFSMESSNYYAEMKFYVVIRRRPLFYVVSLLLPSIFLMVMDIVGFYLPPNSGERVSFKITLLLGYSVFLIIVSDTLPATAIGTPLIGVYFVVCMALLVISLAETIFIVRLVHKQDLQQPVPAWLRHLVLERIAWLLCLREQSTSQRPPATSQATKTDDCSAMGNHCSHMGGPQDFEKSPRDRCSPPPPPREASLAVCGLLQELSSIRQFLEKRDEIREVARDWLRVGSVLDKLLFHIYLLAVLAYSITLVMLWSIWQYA
# Procedure: The screen assesses the selectivity of the compound on a diverse panel of targets that includes GPCRs, drug transporters, ion channels, nuclear receptors, kinases, and other non-kinase enzymes. The screen employs radioligand binding or enzyme assays for these 44 targets.
# For receptor assays, binding was calculated as percent inhibition of the binding of a radioactively labeled ligand specific for each target. For enzyme assays, the inhibition effect was calculated as percent inhibition of control enzyme activity. Tests were performed in duplicate, and results are averages of those two tests. See https://www.eurofinsdiscoveryservices.com.
# DATKO mice [2] = assay: Pre-pulse inhibition in DATKO mice; assay type: in vivo; details: 10 mg/kg i.p.
# Procedure: Pre-Pulse Inhibition (PPI): PPI of the acoustic startle response was measured on day 3, via SR-LAB equipment and software from San Diego Instruments. Accelerometers were calibrated to 700±5 mV and output voltages were amplified and analyzed for voltage changes using SR Analysis (San Diego Instruments, San Diego, CA, USA), and exported as an excel file. Background white noise was maintained at 65dB. PPI was measured in a 30-min test with 80 randomized trials of: (1) 10 trials pulse alone (2) 10 trials pre-pulse alone (for each pre-pulse), (3) 10 trials pre-pulse plus pulse (for each pre-pulse), and (4) 10 trials no pulse. 5 pulse alone trials were performed before and after the 80 trials, totaling 90 trials per run. The pre-pulse (4dB, 8dB, or 16dB) was presented 100ms prior to the startle pulse […]. The inter-stimulus interval (ISI) was randomized between 5 and 20s. Experimental mice were placed in a cylindrical tube on a platform in a soundproof chamber. Mice were allowed to acclimatize in the chamber and to the background noise for 300s, followed by 5 consecutive pulse alone trials, then by 80 randomized trials (as described above) and then 5 consecutive pulse alone trials. Pre-pulse inhibition was measured as a decrease in the amplitude of startle response to a 100dB acoustic startle pulse, following each pre-pulse (4dB, 8dB and 16dB).
# in vitro = in vitro ADME, rat; details: pH 7.4
# Procedure: Microsomal stability assays were conducted by Cyprotex Ltd (Macclesfield, UK).
# The study of drug stability in the presence of liver microsomes is accepted as a valuable model for permitting rapid prediction of in vivo drug stability (see Kerns & Di, 2008). Microsomal stability studies were performed by Cyprotex Ltd (Macclesfield, UK). […] Microsomes (final protein concentration 0.5 mg/mL), 0.1 M phosphate buffer pH 7.4, and test compound (final concentration 3 μM; diluted from 10 mM stock solution to give a final DMSO concentration of 0.25%) were incubated at 37°C prior to the addition of NADPH (final concentration 1 mM) to initiate the reaction with a final incubation volume of 25 µL. A control incubation was included for each compound tested, where 0.1 M phosphate buffer pH 7.4 was added instead of NADPH. The control compounds testosterone and 7-hydroxycoumarin were included in each experiment and all incubations were performed singularly for each compound. […] Following protein precipitation, the sample supernatants were combined in cassettes of up to 4 compounds and analyzed using standard LC-MS/MS conditions. From a plot of the natural logarithm of the peak area ratio (i.e., the ratio of compound peak area: internal standard peak area) against time, the gradient of the line was determined. Subsequently, half-life and intrinsic clearance were calculated using the equations below: […]
structure (smiles),measurement,setting,value
"CCc1c(-c2nnc(Nc3ccccc3)o2)[nH]c2ccc(Cl)cc12 [ABM300, 5-(5-chloro-3-ethyl-1H-indol-2-yl)-N-phenyl-1,3,4-oxadiazol-2-amine]",dysregulated hyperactivity (total distance traveled),DATKO mice [1],normalized
same,stereotypic movements,DATKO mice [1],normalized
same,vertical exploration,DATKO mice [1],normalized
same,binding to 5HT3,5HT3,did not display any significant binding
same,sensorimotor gating deficits (PPI),DATKO mice [2],rescue of the PPI deficit at the 16 dB pre-pulse interval
same,acoustic startle response,DATKO mice [2]; data not shown,"Neither genotype, nor treatment with ABM300, had an effect"
same,half-life at 3 µM,"in vitro; microsomes, rat liver microsomal preparations",1.83 h
same,microsomal CLint at 3 µM,in vitro; rat liver microsomes,12.6 ± 2 µL/min/mg
